Laboratory results reported in ChEMBL document CHEMBL1201862, “PubChem BioAssay data set” (2004).
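Results reflect a 48-hour exposure of cells in 96-well plates to compound at five concentrations. GI50 is the concentration that inhibits growth by half.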 Activity calls are given as the source filed them. Cut-off read from the data, not from the text of the source: active = GI50 up to about 1.1 µM and inactive = higher.

Legend:
Assay in all cases: DTP human tumour cell line panel, 48 h
COLO 205 = system: COLO 205
SW-620 = system: SW-620
HOP-92 = system: HOP-92
RXF 393 = system: RXF 393
SR = system: SR
HCT-116 = system: HCT-116
SNB-75 = system: SNB-75
OVCAR-3 = system: OVCAR-3
UACC-62 = system: UACC-62
IGROV-1 = system: IGROV-1
UACC-257 = system: UACC-257
SN12C = system: SN12C
NCI-H23 = system: NCI-H23
Malme-3M = system: Malme-3M
LOX IMVI = system: LOX IMVI
A498 = system: A498
NCI-H460 = system: NCI-H460
SK-MEL-28 = system: SK-MEL-28
OVCAR-8 = system: OVCAR-8
ACHN = system: ACHN
DMS-273 = system: DMS-273
SK-MEL-5 = system: SK-MEL-5
SK-OV-3 = system: SK-OV-3
OVCAR-4 = system: OVCAR-4
KM12 = system: KM12
RPMI-8226 = system: RPMI-8226
LXFL 529 = system: LXFL 529
TK-10 = system: TK-10
HOP-62 = system: HOP-62
HT-29 = system: HT-29
786-0 = system: 786-0
HCT-15 = system: HCT-15
DLD-1 = system: DLD-1
M19-MEL = system: M19-MEL
U-251 = system: U-251
CCRF-CEM = system: CCRF-CEM
EKVX = system: EKVX
M14 = system: M14
HCC 2998 = system: HCC 2998
SF-268 = system: SF-268
SNB-78 = system: SNB-78
MOLT-4 = system: MOLT-4
RXF 631 = system: RXF 631
SF-539 = system: SF-539
XF498 = system: XF498
A549 = system: A549
K562 = system: K562
SF-295 = system: SF-295
DMS-114 = system: DMS-114
HL-60 = system: HL-60
SK-MEL-2 = system: SK-MEL-2
NCI-H522 = system: NCI-H522
SNB-19 = system: SNB-19
UO-31 = system: UO-31
OVCAR-5 = system: OVCAR-5
KM-20L2 = system: KM-20L2
CAKI-1 = system: CAKI-1
NCI-H226 = system: NCI-H226

Measured: GI50

Nc1ccc(C(c2ccccc2)(c2ccccc2)c2ccccc2)cc1
78.7 µM: HCT-15
inactive: COLO 205 > 100 µM | SW-620 > 100 µM | HOP-92 14 µM | RXF 393 10.3 µM | SR 36.6 µM | HCT-116 62.1 µM | SNB-75 13.5 µM | OVCAR-3 64.6 µM | UACC-62 16.5 µM | IGROV-1 52.1 µM | UACC-257 34.3 µM | SN12C 66.5 µM | NCI-H23 30.1 µM | Malme-3M 30.8 µM | LOX IMVI 47.6 µM | A498 > 100 µM | NCI-H460 28.8 µM | SK-MEL-28 19.7 µM | OVCAR-8 33.9 µM | ACHN 52.5 µM | DMS-273 50.1 µM | SK-MEL-5 42.2 µM | SK-OV-3 17.6 µM | OVCAR-4 24.7 µM | KM12 55.6 µM | RPMI-8226 39 µM | LXFL 529 37.1 µM | TK-10 20.2 µM | HOP-62 27.9 µM | HT-29 45.5 µM | 786-0 48.2 µM | DLD-1 95.9 µM | M19-MEL 55.8 µM | U-251 29.7 µM | CCRF-CEM 29.6 µM | EKVX 27.2 µM | M14 15.8 µM | HCC 2998 > 100 µM | SF-268 99.3 µM | SNB-78 34.4 µM | MOLT-4 > 100 µM | RXF 631 47 µM | SF-539 37 µM | XF498 4.24 µM | A549 > 100 µM | K562 70.6 µM | SF-295 12.3 µM | DMS-114 64 µM | HL-60 26.8 µM | SK-MEL-2 > 100 µM

COC(=O)C(Cc1cc(OC)c(OC)c(OC)c1)(NC(=O)c1ccccc1)P(=O)(OC)OC (stereo unspecified)
inactive: COLO 205 > 100 µM | SW-620 > 100 µM | HOP-92 > 100 µM | RXF 393 > 100 µM | NCI-H522 > 100 µM | SR > 100 µM | SNB-19 > 100 µM | HCT-116 > 100 µM | SNB-75 > 100 µM | UACC-62 > 100 µM | IGROV-1 > 100 µM | UACC-257 > 100 µM | SN12C > 100 µM | NCI-H23 > 100 µM | LOX IMVI > 100 µM | A498 > 100 µM | NCI-H460 > 100 µM | UO-31 > 100 µM | SK-MEL-28 > 100 µM | OVCAR-8 > 100 µM | ACHN > 100 µM | DMS-273 > 100 µM | OVCAR-5 > 100 µM | SK-MEL-5 > 100 µM | SK-OV-3 > 100 µM | OVCAR-4 > 100 µM | KM12 > 100 µM | RPMI-8226 > 100 µM | LXFL 529 > 100 µM | TK-10 > 100 µM | HOP-62 > 100 µM | HT-29 > 100 µM | KM-20L2 > 100 µM | DLD-1 > 100 µM | M19-MEL > 100 µM | U-251 > 100 µM | CCRF-CEM > 100 µM | EKVX > 100 µM | M14 > 100 µM | HCC 2998 > 100 µM | SF-268 > 100 µM | SNB-78 > 100 µM | MOLT-4 > 100 µM | RXF 631 > 100 µM | CAKI-1 > 100 µM | SF-539 > 100 µM | XF498 > 100 µM | A549 > 100 µM | K562 > 100 µM | SF-295 > 100 µM | DMS-114 > 100 µM | HL-60 > 100 µM | SK-MEL-2 > 100 µM | NCI-H226 > 100 µM
> 100 µM: HCT-15

O=C1C(c2ccccc2)=C(c2ccccc2)C(c2ccc(CCCCCCc3ccc(C4=C(c5ccccc5)C(=O)C(c5ccccc5)=C4c4ccccc4)cc3)cc2)=C1c1ccccc1
inactive: COLO 205 > 100 µM | SW-620 > 100 µM | HOP-92 > 100 µM | RXF 393 26.4 µM | NCI-H522 > 100 µM | SNB-19 65 µM | HCT-116 > 100 µM | OVCAR-3 > 100 µM | UACC-62 > 100 µM | IGROV-1 > 100 µM | UACC-257 > 100 µM | SN12C > 100 µM | NCI-H23 > 100 µM | Malme-3M > 100 µM | NCI-H460 > 100 µM | UO-31 > 100 µM | SK-MEL-28 > 100 µM | OVCAR-8 > 100 µM | ACHN > 100 µM | DMS-273 > 100 µM | OVCAR-5 > 100 µM | SK-MEL-5 > 100 µM | OVCAR-4 > 100 µM | KM12 > 100 µM | RPMI-8226 > 100 µM | LXFL 529 > 100 µM | TK-10 > 100 µM | HOP-62 > 100 µM | HT-29 > 100 µM | 786-0 > 100 µM | KM-20L2 > 100 µM | DLD-1 > 100 µM | M19-MEL > 100 µM | U-251 64.6 µM | CCRF-CEM > 100 µM | EKVX > 100 µM | M14 > 100 µM | HCC 2998 > 100 µM | SF-268 > 100 µM | SNB-78 > 100 µM | MOLT-4 > 100 µM | RXF 631 > 100 µM | SF-539 > 100 µM | A549 > 100 µM | K562 > 100 µM | SF-295 > 100 µM | DMS-114 > 100 µM | HL-60 > 100 µM | SK-MEL-2 > 100 µM
> 100 µM: HCT-15
